Columns and labels:
Assay in all cases: relative viability (nuclei count vs DMSO), 5 days (fraction); higher = more cells survive
[1] = compound: COC1=CC=C(C=C1)CN2C=CC3=C2C=C(C=C3)C(=O)NO + CCNC(=O)c1noc(-c2cc(C(C)C)c(O)cc2O)c1-c1ccc(CN2CCOCC2)cc1 [Luminespib] (partner 0.01 µM)
Method in brief: (§1)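 Relative viability equals treated-well nuclei counts divided by vehicle-well nuclei counts. Counts came from 4× images of lung cancer cell lines grown in 1536-well plates for 5 days after pin-tool dosing on the day after seeding. Dosing used one drug alone or a fixed anchor-drug dose plus five library-drug doses (not always all listed) in √10 steps, and values are medians of duplicate plates.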

[2] = compound: C[C@]1(c2nc3c(C(N)=O)cccc3[nH]2)CCCN1 [Veliparib] + CS(=O)(=O)N1CCN(Cc2cc3nc(-c4cccc5[nH]ncc45)nc(N4CCOCC4)c3s2)CC1 [Pictilisib] (partner 1 µM)
Method in brief: as §1

[3] = compound: C[C@]1(c2nc3c(C(N)=O)cccc3[nH]2)CCCN1 [Veliparib] + NC(=O)Nc1cc(-c2cccc(F)c2)sc1C(=O)N[C@H]1CCCNC1 [AZD7762] (partner 0.2 µM)
Method in brief: as §1

[4] = compound: COC1=CC=C(C=C1)CN2C=CC3=C2C=C(C=C3)C(=O)NO + O=C(c1cc(Cc2n[nH]c(=O)c3ccccc23)ccc1F)N1CCN(C(=O)C2CC2)CC1 [Olaparib] (partner 8 µM)
Method in brief: as §1

Cell Line | relative viability ([1]; first compound 0.08 µM) | relative viability ([1]; first compound 0.8 µM) | relative viability ([1]; first compound 2.53 µM) | relative viability ([1]; first compound 8 µM) | relative viability ([2]; first compound 0.06325 µM) | relative viability ([2]; first compound 0.2 µM) | relative viability ([2]; first compound 0.6325 µM) | relative viability ([2]; first compound 2 µM) | relative viability ([3]; first compound 0.06325 µM) | relative viability ([3]; first compound 0.2 µM) | relative viability ([3]; first compound 0.6325 µM) | relative viability ([3]; first compound 2 µM) | relative viability ([4]; first compound 0.253 µM) | relative viability ([4]; first compound 0.8 µM) | relative viability ([4]; first compound 2.53 µM) | relative viability ([4]; first compound 8 µM) | relative viability ([1]; first compound 0.253 µM) | relative viability ([2]; first compound 0.02 µM) | relative viability ([3]; first compound 0.02 µM) | relative viability ([4]; first compound 0.08 µM)
EPLC-272H | 0.262 | 0.333 | 0.4 | 0.235 | 0.227 | 0.283 | 0.278 | 0.0962 | 0.122 | 0.21 | 0.174 | 0.166 | 0.716 | 0.981 | 0.916 | 0.686 |  |  |  | 
NCI-H1975 | 0.26 | 0.281 | 0.262 | 0.114 | 0.283 | 0.336 | 0.282 | 0.287 | 0.639 | 0.737 | 0.736 | 0.61 | 0.815 | 0.697 | 0.678 | 0.785 | 0.238 | 0.292 | 0.765 | 0.77
NCI-H3122 | 0.0872 | 0.141 | 0.0763 | 0.0869 | 0.599 | 0.673 | 0.552 | 0.611 | 1.01 | 0.986 | 0.971 | 1.01 | 0.642 | 0.616 | 0.6 | 0.583 | 0.107 | 0.576 | 0.937 | 0.624
PC-14 |  | 0.184 | 0.14 | 0.134 | 0.513 | 0.616 | 0.673 | 0.662 | 0.313 | 0.335 | 0.385 | 0.327 | 0.224 | 0.306 | 0.236 | 0.215 |  | 0.624 | 0.357 | 0.242
LU99A |  | 0.288 | 0.29 | 0.277 | 0.279 | 0.296 | 0.278 | 0.323 | 0.385 | 0.322 | 0.283 | 0.317 | 0.277 | 0.262 | 0.252 | 0.26 | 0.227 | 0.349 | 0.403 | 
NCI-H358 | 0.25 | 0.374 | 0.434 | 0.213 | 0.37 | 0.38 | 0.315 | 0.342 | 0.487 | 0.671 | 0.552 | 0.676 | 0.614 | 0.59 | 0.544 | 0.49 | 0.428 |  |  | 
NCI-H1792 | 0.37 | 0.529 | 0.35 | 0.414 | 0.212 | 0.301 | 0.263 | 0.332 | 0.485 | 0.548 | 0.569 | 0.533 | 0.578 | 0.445 | 0.447 | 0.561 | 0.638 | 0.322 | 0.479 | 0.438
NCI-H1651 | 0.927 | 1.02 | 0.816 | 0.655 | 0.601 | 0.559 | 0.457 | 0.558 | 0.424 | 0.419 | 0.46 | 0.412 | 0.158 | 0.194 | 0.182 | 0.179 | 0.885 | 0.572 | 0.455 | 0.168
LOU-NH91 | 0.316 | 0.322 | 0.341 | 0.359 | 0.436 | 0.563 | 0.528 | 0.531 | 0.705 | 0.75 | 0.723 | 0.821 | 0.95 | 0.928 | 0.903 | 0.894 | 0.345 | 0.506 | 0.768 | 
NCI-H1395 | 0.662 | 0.628 | 0.708 | 0.604 | 0.516 | 0.557 | 0.675 | 0.524 | 0.359 | 0.411 | 0.405 | 0.405 | 0.419 | 0.49 | 0.496 | 0.436 | 0.659 |  | 0.454 | 
NCI-H650 | 0.816 | 0.774 | 0.745 | 0.574 | 0.855 | 0.926 | 0.743 | 0.809 | 0.798 | 1.14 | 0.96 | 0.944 | 0.417 | 0.452 | 0.353 | 0.418 | 0.758 | 0.968 | 1.07 | 0.351
NCI-H1793 |  | 0.17 | 0.18 | 0.219 | 0.306 | 0.343 | 0.261 | 0.356 | 0.518 | 0.592 | 0.56 | 0.581 | 0.911 | 0.898 | 0.893 | 0.865 | 0.184 | 0.375 | 0.532 | 
201T | 1.05 | 1.07 | 1.05 | 0.987 | 0.623 | 0.682 | 0.678 | 0.658 | 0.778 | 0.645 | 0.639 | 0.689 | 0.833 | 0.881 | 0.844 | 0.832 | 1.13 | 0.682 | 0.656 | 0.846
LK-2 |  | 0.168 | 0.194 | 0.157 | 0.486 | 0.618 | 0.607 | 0.625 | 0.367 | 0.461 | 0.465 | 0.492 | 0.792 | 0.787 | 0.688 | 0.722 | 0.21 |  | 0.32 | 
A-427 |  | 0.956 | 0.835 | 0.847 | 0.734 | 0.675 | 0.632 | 0.625 | 0.719 | 0.755 | 0.724 | 0.782 |  | 0.71 | 0.711 | 0.724 | 1.03 | 0.676 | 0.768 | 0.251
LCLC-97TM1 | 0.412 | 0.801 | 0.803 | 0.724 | 0.224 | 0.215 |  | 0.235 | 0.264 | 0.191 | 0.274 | 0.31 | 0.422 | 0.375 | 0.36 | 0.38 | 0.797 | 0.155 | 0.164 | 
HOP-62 | 0.756 | 0.939 | 0.951 | 0.94 | 0.79 | 0.818 | 0.548 | 0.738 | 0.65 | 0.621 | 0.463 | 0.598 | 0.47 | 0.489 | 0.396 | 0.384 | 0.876 | 0.705 | 0.567 | 
